{
  "source": "paper PMC9221443",
  "about": "“Peptidomimetics Based on C-Terminus of Blm10 Stimulate Human 20S Proteasome Activity and Promote Degradation of Proteins” (Biomolecules, 2022)",
  "key": {"[1]": {"tested_on": "ChT-L peptidase of proteasome in HEK293T cell extracts", "assay": "Proteasome ChT-L activity in HEK293T cell lysates", "format": "biochemical, human", "settings": "1 µM; HEK293T lysate 20 µg/mL protein; 100 µM Suc-LLVY-AMC", "protocol": "Human embryonic kidney cells (HEK293T) were maintained in Dulbecco’s Modified Eagle Medium (DMEM) supplemented with 10% Fetal Bovine Serum and penicillin/streptomycin (100 units/mL/100 µg/mL), at 37 °C with 5% CO2. Cells were grown in a T-75 flask to ~80% confluency and then were lysed using Reporter Lysis Buffer (Promega, Madison, WI, USA) and the manufacturer’s protocol. Protein content was measured using BCA assay. Stock solutions of the fluorogenic substrate (Suc-LLVY-AMC) and the tested peptidomimetics were prepared in dimethyl sulfoxide (DMSO). Potential activators were tested in the following concentrations: 1, 5, 10, 25 and 50 μM. The final DMSO concentration was kept constant at 2%. The activity assays were performed analogously to those described in the proteasome activity assays subsection, in the 96-well plate format in 50 mM Tris-HCl buffer, pH 8.0, using a 100 μL reaction volume. The final concentration of the fluorogenic substrate and cell lysate proteins were: 100 μM and 20 µg/mL, respectively. As a negative control, 1 μM bortezomib solution was used."}, "20S proteasome (h20S)": {"biological_target": "20S proteasome (h20S)", "assay": "Microscale thermophoresis (MST) protein-proteasome interaction", "format": "binding, human", "settings": "NT-647-labeled protein titrated with h20S 0.06-1965 nM, 22 °C, 20 mM Tris-HCl pH 7.2, three independent experiments", "protocol": "Enolase, α-synuclein and their oxidized forms were labeled using Monolith Protein Labeling Kit RED-NHS 2nd Generation Amine Reactive, NT-647 (Nanotemper, München, Germany), according to the manufacturer instructions. The labeling process was carried out in 50 mM HEPES buffer, pH 7.4, in the protein:NT-647 1:2 ratio. The incubation time was 60 min for enolase and 30 min for α-synuclein, at 21 °C. After labeling, the excess of the fluorescent reagent was removed using the columns provided by the manufacturer and 20 mM Tris-HCl buffer, pH 7.2, containing 200 mM NaCl and 10% glycerol. The obtained labeled proteins were concentrated on Amicon 3K spin-columns (Merck, Darmstadt, Germany). Protein concentrations were determined by measuring absorbance at 280 nm, using UV/Vis spectrophotometer (DU®730 Beckman Coulter).\nDirect interactions between the fluorescently labeled, native and oxidized, proteins and the 20S proteasome were examined using microscale thermophoresis (NanoTemper Monolith NT.115). The labeled protein concentration was kept constant at 250 nM for native and oxidized α-synuclein and 125 nM and 25 nM for native and oxidized enolase, respectively. […] The EC50 values were calculated based on results obtained in three independent experiments."}},
  "data": [
    {"compound": "CC(C)C[C@H](NC(=O)[C@H](Cc1ccccc1)NC(=O)c1cnccn1)B(O)O", "note": "[bortezomib]", "values": [
      {"measurement": "degradation of Suc-LLVY-AMC substrate in cell extracts (negative control)", "setting": "[1]", "value": "completely blocked"}
    ]},
    {"compound": "enolase: native human enolase 2, 434-residue thermolabile protein, model substrate", "values": [
      {"measurement": "EC50 of binding to 20S proteasome (MST, Hill fit)", "setting": "20S proteasome (h20S)", "value": "did not bind"}
    ]},
    {"compound": "α-synuclein", "values": [
      {"measurement": "EC50", "setting": "20S proteasome (h20S); read-out: EC50 of binding to 20S proteasome (MST, Hill fit)", "value": "32.3 ± 1.3", "unit": "nM"}
    ]}
  ]
}
